Marks after values point to notes of the source that are not given here.
Legend:
[1] = test system: patients with follicular lymphoma (FL); assay: Phase 1b study: patients with adverse events of special interest (AESI); type: in vivo, human
Experimental: (§1) Methods: Patients with ECOG ≤2, no prior PI3K therapy and progression of disease (POD) after ≥1 prior therapy were initially enrolled in a dose escalation phase (60-180 mg) then in 60 mg expansion cohorts as monotherapy or in combination with rituximab. Treatment is given in 28-day cycles and continued until POD or unacceptable toxicity. Compound A35 was given initially on a continuous daily dosing schedule. An intermittent dosing schedule on days 1-7 of a 28-day cycle was then evaluated after 2 cycles of daily dosing, or ≥3 cycles of daily dosing to reduce the risk of immune-related adverse events. For this analysis the intermittent schedule (IS) group is defined as patients who received Compound A35 alone or with rituximab daily for 2 cycles then switched to an intermittent schedule of 1 week per cycle, and the continuous schedule (CS) group is defined as patients who never switched to intermittent dosing or switched to intermittent dosing in cycle 4 or later cycles. Toxicity on CS is managed by a switch to IS. Progression of disease (POD) on IS is managed by a switch to CS.

[2] = test system: patients with follicular lymphoma (FL); assay: Phase 1b study of Compound A35 alone or with rituximab: disease response in follicular lymphoma patients; type: in vivo, human
Experimental: In an ongoing Phase 1b study, patients with relapsed B-cell malignancies are administered Compound A35 either as a single agent or in combination with the anti-CD20 antibody rituximab (Rituxan®). A total of 90 subjects have been enrolled in the study to date: • 31 subjects enrolled in a dose escalation cohort of Compound A35 administered as a single agent at a daily dose of 60, 120, and 180 mg; • 21 subjects enrolled in an ongoing expansion cohort of Compound A35 administered as a single agent at 60 mg/day, either on a daily continuous schedule (CS) only or on a daily dosing followed by a switch to an intermittent dosing schedule […] beginning in Cycle 3. • 38 subjects enrolled in a cohort of Compound A35 at 60 mg/day on a CS or IS dosing plus infusional rituximab at a dose of 375 mg/m^2 administered for a total of 8 doses in 6 months
Patients with FL were treated with Compound A35 either alone (N=40) or in combination with the anti-CD20 antibody rituximab (N=14). Most patients in the rituximab combination cohort received Compound A35 by intermittent schedule (IS) after 2 cycles of daily dosing of Compound A35.
as §1

[3] = test system: patients with follicular lymphoma (FL); assay: Phase 1b study: patient disposition on continuous (CS) or intermittent (IS) schedule; type: in vivo, human
Experimental: as §1

[4] = Tumor exposure of Compound A35 (FIG. 3); type: in vivo; details: over a 4-hour and 24-hour period (FIG. 3)
murine B-cell tumors = assay: Retention in murine B-cell tumors (FIG. 4); type: in vivo; details: compared to idelalisib (FIG. 4)
[5] = All Grades, All (N = 40), single agent therapy
[6] = All Grades, CS Group (N = 25), single agent therapy
[7] = All Grades, CS Group (N = 31), A35 alone or with rituximab
[8] = All Grades, IS Group (N = 15), single agent therapy
[9] = All Grades, IS Group (N = 23), A35 alone or with rituximab
[10] = Grade 3, CS Group (N = 31), A35 alone or with rituximab
[11] = Grade 3, IS Group (N = 23), A35 alone or with rituximab
[12] = Related Grade 3, All (N = 40), single agent therapy
[13] = Related Grade 3, CS Group (N = 25), single agent therapy
[14] = Related Grade 3, IS Group (N = 15), single agent therapy
[15] = CS Group (N = 25), Compound A35 alone arm
[16] = CS Group (N = 31), A35 alone or with rituximab
[17] = FL patients, A35 alone or with rituximab
[18] = IS Group (N = 15), Compound A35 alone arm
[19] = IS Group (N = 23), A35 alone or with rituximab

Compound: CN1CCC(c2ccccc2CC(C)(C)Nc2nc(N3CCOCC3)nc(-n3c(C(F)F)nc4ccccc43)n2)CC1 [Compound A35]
- AESI: ALT/AST increased [1, 5]: 9 (22.5%)
- AESI: Diarrhea/colitis [1, 5]: 17 (42.5%)
- AESI: Mucositis [1, 5]: 6 (15.0%)
- AESI: Pneumonia/ Pneumonitis [1, 5]: 2 (5.0%)
- AESI: Rash, all types [1, 5]: 12 (30.0%)
- AESI: ALT/AST increased [1, 6]: 6 (24.0%)
- AESI: Diarrhea/colitis [1, 6]: 10 (40.0%)
- AESI: Mucositis [1, 6]: 6 (24.0%)
- AESI: Pneumonia/ Pneumonitis [1, 6]: 2 (8.0%)
- AESI: Rash, all types [1, 6]: 11 (44.0%)
- AESI: ALT/AST increased [1, 7]: 8 (25.8%)
- AESI: Diarrhea/colitis [1, 7]: 11 (35.5%)
- AESI: Mucositis [1, 7]: 6 (19.4%)
- AESI: Pneumonia [1, 7]: 2 (6.5%)
- AESI: Rash, all types [1, 7]: 11 (35.5%)
- AESI: ALT/AST increased [1, 8]: 3 (20.0%)
- AESI: Diarrhea/colitis [1, 8]: 7 (46.7%)
- AESI: Mucositis [1, 8]: 0%
- AESI: Pneumonia/ Pneumonitis [1, 8]: 0%
- AESI: Rash, all types [1, 8]: 1 (6.7%)
- AESI: ALT/AST increased [1, 9]: 7 (30.4%)
- AESI: Mucositis [1, 9]: 1 (4.3%)
- AESI: Pneumonia [1, 9]: 0%
- AESI: Rash, all types [1, 9]: 2 (8.7%)
- AESI: Diarrhea/colitis ([1]; All Grades, IS Group (N = 23), A35 alone or with rituximab, excluded 1 subject with diarrhea after POD and 1 with one-day diarrhea): 11 (47.8%)*
- AESI: ALT/AST increased [1, 10]: 3 (9.7%)
- AESI: Diarrhea/colitis [1, 10]: 5 (16.1%)
- AESI: Mucositis [1, 10]: 1 (3.2%)
- AESI: Pneumonia [1, 10]: 2 (6.5%)
- AESI: Rash, all types [1, 10]: 4 (12.9%)
- AESI: ALT/AST increased [1, 11]: 1 (4.3%)
- AESI: Diarrhea/colitis [1, 11]: 2 (8.7%)
- AESI: Mucositis [1, 11]: 0%
- AESI: Pneumonia [1, 11]: 0%
- AESI: Rash, all types [1, 11]: 0%
- Grade 3 immune-related adverse events ([1]; IS group (N=23) compared to the CS group (N=31)): less common
- AESI: ALT/AST increased [1, 12]: 3 (7.5%)
- AESI: Diarrhea/colitis [1, 12]: 6 (15.0%)
- AESI: Mucositis [1, 12]: 1 (2.5%)
- AESI: Pneumonia/ Pneumonitis [1, 12]: 2 (5.0%)
- AESI: Rash, all types [1, 12]: 4 (10.0%)
- AESI: ALT/AST increased [1, 13]: 3 (12.0%)
- AESI: Diarrhea/colitis [1, 13]: 5 (20.0%)
- AESI: Mucositis [1, 13]: 1 (4.0%)
- AESI: Pneumonia/ Pneumonitis [1, 13]: 2 (8.0%)
- AESI: Rash, all types [1, 13]: 4 (16.0%)
- AESI: ALT/AST increased [1, 14]: 0%
- AESI: Diarrhea/colitis [1, 14]: 1 (6.7%)
- AESI: Mucositis [1, 14]: 0%
- AESI: Pneumonia/ Pneumonitis [1, 14]: 0%
- AESI: Rash, all types [1, 14]: 0%
- incidence of immune-related adverse events (irAEs) ([1]; intermittent schedule (IS)): appears to reduce the incidence
- rate of response in POD24 patients ([2]; A35 alone or in combination with a CD20 inhibitor, higher than expected with conventional FL therapy): very high rate of response
- morphologic/metabolic CR ([2]; FL patients with follow-up disease assessment, Compound A35 alone): 20%
- No. (%) of Subjects with a Response ([2]; No POD24, Total (A35 alone and A35 + rituximab cohorts)): 16 (67%) No. (%)
- No. (%) of Subjects with a Response ([2]; No POD24 FL subjects evaluable for response): 14 (64%) No. (%)
- No. (%) of Subjects with a Response ([2]; POD24, Total (A35 alone and A35 + rituximab cohorts)): 24 (92%) No. (%)
- No. (%) of Subjects with a Response ([2]; POD24 FL subjects evaluable for response): 16 (100%) No. (%)
- rate of durable responses ([2]; R/R FL): high rate of durable responses
- POD24 subjects with response who had PD ([2]; of 24 POD24 subjects who achieved response): 6 subjects
- Patient Disposition: Adverse event [3, 15]: 3 (12%)
- Patient Disposition: Progressive disease [3, 15]: 4 (16%)
- Patient Disposition: Adverse event [3, 16]: 3 (10%)
- Patient Disposition: Progressive disease [3, 16]: 4 (13%)
- patients discontinued: POD [3, 17]: 9 patients
- patients discontinued: adverse events (AEs) [3, 17]: 4 patients
- Patient Disposition: Adverse event [3, 18]: 1 (7%)
- Patient Disposition: Progressive disease [3, 18]: 0%
- Patient Disposition: Adverse event [3, 19]: 1 (4%)
- Patient Disposition: Progressive disease [3, 19]: 0 (0%)
- tumor exposure [4]: preferential tumor exposure
- retention in murine B-cell tumors (murine B-cell tumors): preferential retention

From US20210196725A1, “TREATMENT OF RELAPSED FOLLICULAR LYMPHOMA” (MEI Pharma, Inc., priority 2018, published 2021)
